The test system of data set [1] is CHRF line acute myeloid leukemia (AML) cells. Put plainly: XTT growth inhibition of CHRF AML cells, 72 hours. It counts as cell-based. The note with it: for Growth inhibition (%): 80 µM. Here is the method: Cells were grown in full culture medium for 24 hours. The medium was then removed and cells were washed with PBS. The PBS was then replaced by fresh medium containing different concentrations of SEM-011 in a range of 50 to 800 μM, or with SEM-011-free medium as a control. […] Growth inhibition was evaluated by calculating the percent decrease in absorbance in SEM-011-treated test cultures as compared to control cultures.
(In general: Tetrazolium assays rely on reduction of a dye to a coloured formazan, in cell work by metabolically active cells.)

Data set [2] concerns PC-3 prostate cancer cells. Put plainly: PC-3 prostate cancer tumors in nu/nu mice, tumor volume / Progression Index. Type of data set: in vivo. The method, then:
Tumor volumes were quantified (in cm^3) at the indicated times by using the formula: tumor volume=(width^2×length)/2. Tumor volume index or Progression Index refers to the ratio of a tumor volume at an indicated time to the first volume measured for that tumor.
Nu/nu nude mice were inoculated on their right flank with 2×10^6 PC-3 prostate cancer cells in a Matrigel mixture. Following inoculation, two mice were treated with escalating concentrations of L-012 (also referred to herein as “SEM-007”) by intraperitoneal injections twice per week, according to the following schedule:
As a control, two mice were inoculated with PC-3 cells without receiving L-012.
The volume of the tumor was then monitored.
The tumor volume was measured periodically beginning on day 25 post-inoculation, and the weight loss over the course of the experiment was also measured.
Each treatment group and each control group consisted of four (and sometimes five) mice.
In another set of experiments, Nu/nu male mice, 1.5-month old, were injected subcutaneously on the right flank with PC-3 cells (2.0×10^6 cells/mouse). On days 4, 8, 12, 15, 19, 36, 42 and […] (after the beginning of treatment), mice were treated with either vehicle (PBS) or 43 mg/Kg L012 by intraperitoneal injections. From the beginning of treatment, tumor dimensions were measured and tumor volume calculated. Progression Index was calculated as the ratio of tumor volume growth at a particular time point to the tumor volume at the initiation of treatment.
(§1) Control animals received an intraperitoneal injection of PBS.
The tumor volume was measured periodically beginning on day 35 post-inoculation.
Nu/nu male mice, 1.5-month old, were injected subcutaneously on the right flank with PC-3 cells (2.0×10^6 cells/mouse). On days 4, 8, 12, 15, 19, 36, 42 and 46 (after beginning of treatment), mice were treated with either vehicle (PBS) or 43 mg/Kg SEM 009, by intravenous injection, as indicated.
From the beginning of treatment, tumor dimensions were measured and tumor volume calculated. Progression Index was calculated as the ratio of tumor volume rowth at a particular time point to the tumor volume at the initiation of treatment.

The conditions of data set [3]: for effect on decrease in body weight following inoculation with tumor cells: FIG. 5.
Source text: FIG. 5 is a bar graph showing the change in body weight of nu/nu mice 28 and 77 days after inoculation with PC-3 cells, following intraperitoneal injection of L-012 once per week (L012 l/w) or twice per week (L012 2/w) during days 35-56 after inoculation, and without L-012 administration (Control);
Nu/nu mice were inoculated with PC-3 cells as described in Example 1, and on day 35 post-inoculation, the animals were divided into three groups.
as §1
A second group received one weekly injection of 41.3 mg/kg L-012 for 3 weeks, i.e., on days 35, 42 and 49 post-inoculation. A third group received two weekly injections of 41.3 mg/kg L-012 for 3 weeks, i.e., on days 35, 36, 42, 47, 49 and 56.

The test system of data set [4] is PC-3 cells. Kind of data set: Alamar Blue growth inhibition of PC-3 cells. The note with it: for IC50: read-out: Est IC50. Type of data set: cell-based, human. Here is the method:
In additional sets of experiments. […] At the end of the culture period, the level of mitochondrial metabolism was measured (using Alamar Blue assay) and the activity of the chemiluminescent agents was determined by percents of growth inhibition; the inhibition of growth in treated cell cultures compared to non-treated, control cells.
On the technique in general: Alamar Blue is a resazurin reagent that responds to reducing activity.

Data set [5] concerns OvCar-3 ovarian cancer cells, SKOV-3 ovarian cancer cells, HepG2 liver cancer cells, PC-3 prostate cancer cells, CHRF acute myeloid leukemia cells. Put plainly: XTT growth inhibition IC50 in a panel of cancer cell lines, 72 hours. Type of data set: cell-based. The note with it: all tested cell lines, FIG. 7. Here is the method: (§2) The compound SEM-011 was tested for anti-cancer activity, using the PC-3 prostate cancer cell line. Cells were grown in full culture medium for 24 hours. The medium was then removed and cells were washed with PBS. The PBS was then replaced by fresh medium containing different concentrations of SEM-011 in a range of 50 to 800 μM, or with SEM-011-free medium as a control. Cells were then cultured for 24 hours, after which time the level of cellular metabolism in the cultures was measured using a standard XTT (2,3-bis-(2-methoxy-4-nitro-5-sulfophenyl)-2H-tetrazolium-5-carboxanilide) assay. Growth inhibition was evaluated by calculating the percent decrease in absorbance in SEM-011-treated test cultures as compared to control cultures.
(§3) The compounds SEM-007 (also referred to herein and in the art as “L-012”) and SEM-009 (also referred to in the art as “L-002”) were tested for anti-cancer activity using a variety of cell lines. The cell lines used were OvCar-3 ovarian cancer cells, SKOV-3 ovarian cancer cells, HepG2 liver cancer cells, PC-3 prostate cancer cells, and CHRF acute myeloid leukemia cells.

Experiment in data set [6]: as above
Type of data set: cell-based. The note with it: span over all tested cell lines, FIG. 7, read-out: IC50 (concentration which resulted in 50% growth inhibition). The method, then: as §2, §3

The test system of data set [7] is PC-3 prostate cancer cell line. Put plainly: XTT growth inhibition of PC-3 cells, 24 hours. It counts as cell-based, human. Here is the method: as §2
Setting [8] is: Homo sapiens, PC-3, 200 uM, 24 hrs.
[9] abbreviates: Homo sapiens, PC-3, 200 uM, 48 hrs.
[10] abbreviates: Homo sapiens, PC-3, 400 uM, 24 hrs.
Setting [11] is: Homo sapiens, PC-3, 400 uM, 48 hrs.
[12] abbreviates: Homo sapiens, PC-3, 800 uM, 24 hrs.
Setting [13] is: Homo sapiens, PC-3, 800 uM, 48 hrs.
Where [14] appears, read: Homo sapiens, PC-3, 200 uM, 72 hrs.
Setting [15] is: Homo sapiens, PC-3, 400 uM, 72 hrs.
Setting [16] is: Homo sapiens, PC-3, 800 uM, 72 hrs.

Where two headings read alike, the source gives them in different places.

Regarding `C[n+]1c2ccccc2c(-c2c3ccccc3[n+](C)c3ccccc23)c2ccccc21` [Lucigenin], the “Growth inhibition (%)” value in data set [1] amounted to 33%.
As a reminder, the inhibition is the relative decrease from the control value, in per cent. Regarding `Nc1cccc2c(=O)[nH][nH]c(=O)c12` [Luminol], the inhibition at 80 µM in data set [1] (72 h, read-out: Growth inhibition (%)) came to 40%.
On to `Nc1c(-c2ccccc2)nc(Cl)c2c(=O)[nH][nH]c(=O)c12` [SEM-007, L-012], for which the “reduction of tumor volume in comparison with the PBS-treated control” value in data set [2] (41.3 mg/kg intraperitoneal on days 25, 28, 32, 35, at day 65, FIG. 3A) was 54%; in data set [2] (41.3 mg/kg once per week for 3 weeks, at day 73, FIGS. 4A, 4B), 45%; in data set [2] (41.3 mg/kg twice per week for 3 weeks, at day 73, FIGS. 4A, 4B), 95%. The “Progression Index compared to non-treated mice” value in data set [2] (43 mg/Kg intraperitoneal, FIG. 3B) is “sharp increase in the Progression Index”. Moreover, the “average tumor volume progression after administration” value in data set [2] (escalating L-012 41.3, 66.5, 100.4 mg/kg intraperitoneal on days 32, 39, 43, FIG. 2) was “halted tumor progression, with no increase in average tumor volume”. Besides, the “tumor volume reduction (summary of FIGS. 2-4B)” value in data set [2] (prostate cancer cells injected into mice, dose dependent) was “up to 95%”. Also, the “systemic toxicity or morbidity in tumor-bearing mice” value in data set [3] (41.3 mg/kg once or twice per week) is reported as “does not result in systemic toxicity or morbidity”. Moreover, the results for the “effect on decrease in body weight following inoculation with tumor cells” value in data set [3] (41.3 mg/kg once per week) and in data set [3] (41.3 mg/kg twice per week) were “partially inhibited the decrease in body weight” and “completely reversed the decrease in body weight”, respectively. The “% growth inhibition” value in data set [4] (25 uM, 48 hrs) turned out to be 27%; in data set [4] (25 uM, 73 hrs), 11%; in data set [4] (50 uM, 24 hrs), 46.46%; in data set [4] (50 uM, 48 hrs), 31%; in data set [4] (50 uM, 73 hrs), 20%; in data set [4] (100 uM, 24 hrs), 65.25%. The “% growth inhibition” value in data set [4] (100 uM, 48 hrs) came out at 38%; in data set [4] (100 uM, 73 hrs) it was 38%; in data set [4] (200 uM, 24 hrs) it was 66.84%; in data set [4] (200 uM, 48 hrs) it was 58%; in data set [4] (200 uM, 73 hrs) it was 58.0%; in data set [4] (400 uM, 24 hrs) it was 77.73%. In addition, the “% growth inhibition” value in data set [4] (400 uM, 48 hrs) came to 70%; in data set [4] (400 uM, 73 hrs), 76%; in data set [4] (800 uM, 24 hrs) it was 73.80%; in data set [4] (800 uM, 48 hrs), 78%; in data set [4] (800 uM, 73 hrs), 90%. In addition, the IC50 is 160 µM in data set [4] (48 hrs) and 140 µM in data set [4] (73 hrs).
For `O=c1[nH][nH]c(=O)c2c(O)c(-c3ccccc3)ncc12` [SEM-009, 8-hydroxy-7-phenyl-2,3-dihydropyrido[4,3-d]pyridazine-1,4-dione], in data set [5], the “IC50 compared with SEM-007” value was “lower than that of SEM-007 in all of the tested cell lines”. Besides, the IC50 was 40 to 200 µM in data set [6]; 100 µM in data set [4] (Homo sapiens, PC-3, 48 hrs); 110 µM in data set [4] (Homo sapiens, PC-3, 73 hrs). For the same molecule, the “Progression Index compared to non-treated mice” value in data set [2] (43 mg/Kg SEM 009 by intravenous injection, FIG. 9) is recorded as “sharp decrease in the Progression Index”. The inhibition at 50 µM in data set [4] (Homo sapiens, PC-3, 50 uM, 24 hrs) was -27.2%; in data set [4] (Homo sapiens, PC-3, 50 uM, 48 hrs), 26.6%; in data set [4] (Homo sapiens, PC-3, 50 uM, 73 hrs), 21.3%. In addition, the inhibition at 100 µM turned out to be 81.4% in data set [4] (Homo sapiens, PC-3, 100 uM, 24 hrs); 49.2% in data set [4] (Homo sapiens, PC-3, 100 uM, 48 hrs); 47.8% in data set [4] (Homo sapiens, PC-3, 100 uM, 73 hrs). The inhibition at 200 µM was found to be 84.2% in data set [4] (setting [8]); 80.3% in data set [4] (setting [9]); 80.5% in data set [4] (Homo sapiens, PC-3, 200 uM, 73 hrs). Besides, the inhibition at 400 µM in data set [4] (setting [10]) is 90.6%; in data set [4] (setting [11]), 83.7%; in data set [4] (Homo sapiens, PC-3, 400 uM, 73 hrs) it was 85.6%. The inhibition at 800 µM in data set [4] (setting [12]) was found to be 89.1%; in data set [4] (setting [13]) it was 85.7%; in data set [4] (Homo sapiens, PC-3, 800 uM, 73 hrs), 89%.
As for `NNc1nc(-c2ccccc2)c(O)c2c(=O)[nH][nH]c(=O)c12` [SEM-011, 5-hydrazinyl-8-hydroxy-7-phenyl-2,3-dihydropyrido[4,3-d]pyridazine-1,4-dione], the inhibition at 50 µM in data set [7] (Homo sapiens, PC-3, 50 μM) is 50%. The inhibition at 100 µM in data set [7] (Homo sapiens, PC-3, 100 μM) was 87%. Besides, in data set [7] (Homo sapiens, PC-3, 200 μM), the inhibition at 200 µM amounted to 96%. In addition, in data set [7] (Homo sapiens, PC-3, 400 μM), the inhibition at 400 µM came out at 96%. Further, the inhibition at 800 µM in data set [7] (Homo sapiens, PC-3, 800 μM) turned out to be 96%. Besides, in data set [7] (concentrations of 200 μM or more), the “PC-3 cell growth inhibition in words” value is given as “almost completely inhibited PC-3 cell growth”.
As for `O=c1[nH][nH]c(=O)c2c(O)c(-c3ccccc3Cl)ncc12` [SEM-013, 8-hydroxy-7-(2-chlorophenyl)-2,3-dihydropyrido[4,3-d]pyridazine-1,4-dione], the values for the inhibition at 200 µM in data set [4] (setting [8]), in data set [4] (setting [9]) and in data set [4] (setting [14]) were 23.8%, 22.3% and 23.1%, respectively. Further, the inhibition at 400 µM was 30.1% in data set [4] (setting [10]), 29.1% in data set [4] (setting [11]) and 41.7% in data set [4] (setting [15]). For the same molecule, the inhibition at 800 µM in data set [4] (setting [12]) stood at 37.1%; in data set [4] (setting [13]), 55.5%; in data set [4] (setting [16]) it was 64.2%.
As to `O=c1[nH][nH]c(=O)c2c(O)c(-c3ccc(Cl)cc3)ncc12` [SEM-014, 8-hydroxy-7-(4-chlorophenyl)-2,3-dihydropyrido[4,3-d]pyridazine-1,4-dione], the values for the inhibition at 200 µM in data set [4] (setting [8]), in data set [4] (setting [9]) and in data set [4] (setting [14]) were 51.6%, 71.9% and 68.2%, respectively. For the same molecule, the inhibition at 400 µM was found to be 55.7% in data set [4] (setting [10]), 70.5% in data set [4] (setting [11]) and 72.7% in data set [4] (setting [15]). Moreover, the values for the inhibition at 800 µM in data set [4] (setting [12]), in data set [4] (setting [13]) and in data set [4] (setting [16]) were 54.3%, 71.3% and 76.1%, respectively.
As for MCLA, in data set [1], the “Growth inhibition (%)” value is given as 85%.

For the origin of these results see patent US10092565B2, “Treatment of proliferative disorders with a chemiluminescent agent” (Semorex Technologies Ltd., priority 2011, dated 2018).
